Data as given in ChEMBL document CHEMBL5053521 (Bioorg Med Chem Lett, 2021).

Legend:
[1] = molecular target: T1, Histamine H2 receptor (Homo sapiens, UniProt P25021); assay: Displacement of [3H]UR-DE257 from Gsalphas-coupled human H2R expressed in Sf9 cell membranes by competitive binding assay; set-up: species or system Membrane
[2] = molecular target: T1, Histamine H2 receptor; assay: Binding affinity to human H2R expressed in HEK293T-qs5-HA cells by flow cytometry analysis; format: cell-based
[3] = molecular target: T1, Histamine H2 receptor; assay: Agonist activity at human H2 receptor expressed in Sf9 cell membranes co-exprssing GsalphaS assessed as stimulation of [35S]GTPgammaS binding incubated for 90 mins by scintillation counting analysis; format: functional, Membrane
[4] = molecular target: T1, Histamine H2 receptor; assay: Agonist activity at NlucN/mini-Gi protein-fused human H2R stably expressed in HEK293T cells assessed as induction of mini-Gi protein recruitment using furimazine as substrate measured for 45 mins by luminescence assay; format: functional, cell-based
[5] = molecular target: T1, Histamine H2 receptor; assay: Agonist activity at human H2 receptor expressed in HEK293T-ARRB2 cells assessed as stimulation of beta-arrestin 2 recruitment; format: functional, cell-based
[6] = molecular target: T1, Histamine H2 receptor; assay: Agonist activity at human H2 receptor expressed in HEK293T-ARRB1 cells assessed as stimulation of beta-arrestin 1 recruitment by measuring maximum efficacy; format: functional, cell-based; conditions: filed as agonist
[7] = molecular target: T1, Histamine H2 receptor; assay: Agonist activity at human H2 receptor expressed in HEK293T-ARRB1 cells assessed as stimulation of beta-arrestin 1 recruitment; format: functional, cell-based

T1 sequence (P25021 whole entry): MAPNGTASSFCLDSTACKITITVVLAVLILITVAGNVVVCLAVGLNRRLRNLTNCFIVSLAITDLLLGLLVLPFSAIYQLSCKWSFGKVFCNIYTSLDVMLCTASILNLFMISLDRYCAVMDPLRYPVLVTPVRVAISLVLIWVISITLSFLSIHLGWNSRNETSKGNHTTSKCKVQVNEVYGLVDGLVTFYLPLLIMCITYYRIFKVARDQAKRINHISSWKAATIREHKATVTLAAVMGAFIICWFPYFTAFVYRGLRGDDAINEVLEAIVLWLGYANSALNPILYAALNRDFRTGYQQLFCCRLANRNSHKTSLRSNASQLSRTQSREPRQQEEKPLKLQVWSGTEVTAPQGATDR

For `Cc1nc(N)sc1CCCN/C(N)=N/C(=O)NCCCCCCCCNC(=O)CCCCCN1/C(=C/C=C/C=C/C2=[N+](CCCCS(=O)(=O)O)c3ccccc3C2(C)C)c2cc(S(=O)(=O)[O-])ccc2C1(C)C`, the Ki [1] was 263 nM, the Kd [2] was over 1000 nM and the EC50 [3] was 1290 nM. For the same compound, the EC50 [4] was 759 nM.

Work on `Cc1nc(N)sc1CCCN/C(N)=N/C(=O)NCCCCCCCCCCNC(=O)CCCCCN1/C(=C/C=C/C=C/C2=[N+](CCCCS(=O)(=O)O)c3ccccc3C2(C)C)c2cc(S(=O)(=O)[O-])ccc2C1(C)C` yielded a Ki [1] of over 1000 nM, an EC50 [3] of 2400 nM and an EC50 [4] of 2040 nM.

`CC1(C)C(/C=C/C=C/C=C2\c3ccccc3C(C)(C)N2CCCCCC(=O)NCCCCCCCCNC(=O)/N=C(\N)NCCCc2nnc(N)s2)=[N+](CCCCS(=O)(=O)[O-])c2ccccc21` showed an EC50 [5] of 64.6 nM, an Emax [6] of 0.55 and a Ki [1] of 263 nM. It also gave a Kd [2] of 112 nM, an EC50 [3] of 100 nM and an EC50 [4] of 257 nM. It also gave an EC50 [7] of 339 nM.

`Cc1nc(N)sc1CCCN/C(N)=N/C(=O)NCCCCCCNC(=O)CCCCCN1/C(=C/C=C/C=C/C2=[N+](C)c3ccccc3C2(C)C)c2ccccc2C1(C)C` gave an EC50 [5] of 191 nM, an Emax [6] of 0.57 and a Ki [1] of 21.9 nM. The Kd [2] was 33 nM, the EC50 [3] was 186 nM and the EC50 [4] was 501 nM. For the same compound, the EC50 [7] was 513 nM.

`Cc1nc(N)sc1CCCN/C(N)=N/C(=O)NCCCCCCCCNC(=O)CCCCCN1/C(=C/C=C/C=C/C2=[N+](CCCCS(=O)(=O)[O-])c3ccccc3C2(C)C)c2ccccc2C1(C)C` showed an EC50 [5] of 129 nM, an Emax [6] of 0.09 and a Ki [1] of 562 nM. For the same compound, the Kd [2] was 70.8 nM, the EC50 [3] was 339 nM and the EC50 [4] was 1100 nM. For the same compound, the EC50 [7] was 617 nM.

In the case of `CC1(C)C(/C=C/C=C/C=C2\c3ccccc3C(C)(C)N2CCCCCC(=O)NCCCCCCCCNC(=O)/N=C(\N)NCCCc2c[nH]cn2)=[N+](CCCCS(=O)(=O)[O-])c2ccccc21`, the EC50 [5] is reported as 115 nM, the Emax [6] is reported as 0.25 and the Ki [1] is reported as 66.1 nM. The Kd [2] was 56.2 nM, the EC50 [3] was 120 nM and the EC50 [4] was 339 nM. It also gave an EC50 [7] of 427 nM.

Work on `NCCc1c[nH]cn1` yielded an Emax [6] of 1.

Compound `Cc1nc(N)sc1CCCN/C(N)=N/C(=O)NCCCCCCCCCCNC(=O)CCCCCN1/C(=C/C=C/C=C/C2=[N+](CCCCS(=O)(=O)[O-])c3ccccc3C2(C)C)c2ccccc2C1(C)C` has a Ki [1] of 95.5 nM, a Kd [2] of 229 nM and an EC50 [3] of 676 nM. It also gave an EC50 [4] of 1450 nM.

With `Cc1nc(N)sc1CCCN/C(N)=N/C(=O)NCCCCCCNC(=O)CCCCCN1/C(=C/C=C/C=C/C2=[N+](CCCCS(=O)(=O)[O-])c3ccccc3C2(C)C)c2ccccc2C1(C)C` the Ki [1] was 251 nM, the Kd [2] was 1000 nM and the EC50 [3] was 562 nM. For the same compound, the EC50 [4] was 3890 nM.

`Cc1nc(N)sc1CCCN/C(N)=N/C(=O)NCCCCCCCCNC(=O)CCCCCNC(=O)COc1ccc(/C=C/C2=[N+]3C(=Cc4ccc(-c5cccs5)n4[B-]3(F)F)C=C2)cc1` was tested, and the Ki [1] was 30.1 nM, the Kd [2] was 81.3 nM and the EC50 [3] was 72.4 nM.
